Reference: patent publication US20230079819A1, “COMPOUNDS AND USES THEREOF” (Foghorn Therapeutics Inc., priority 2019, published 2023)

How the values were obtained:
BRM = biological target: T1, BRM (Homo sapiens, UniProt P51531); assay: ATPase catalytic activity of BRM, ADP-Glo in vitro biochemical assay; details: ATPase catalytic activity, 30 nM BRM, 400 μM ATP, read-out: BRM IP50 (μM)*
T1 construct: made in house; host or cells: High Five insect cells

BRG-1 = biological target: T2, BRG-1 (Homo sapiens, UniProt P51532); assay: ATPase catalytic activity of BRG-1, ADP-Glo in vitro biochemical assay; details: ATPase catalytic activity, 30 nM BRG-1, 400 μM ATP, read-out: BRG1 IP50 (μM)*
T2 construct: made in house; host or cells: High Five insect cells
T2 sequence (P51532 whole entry): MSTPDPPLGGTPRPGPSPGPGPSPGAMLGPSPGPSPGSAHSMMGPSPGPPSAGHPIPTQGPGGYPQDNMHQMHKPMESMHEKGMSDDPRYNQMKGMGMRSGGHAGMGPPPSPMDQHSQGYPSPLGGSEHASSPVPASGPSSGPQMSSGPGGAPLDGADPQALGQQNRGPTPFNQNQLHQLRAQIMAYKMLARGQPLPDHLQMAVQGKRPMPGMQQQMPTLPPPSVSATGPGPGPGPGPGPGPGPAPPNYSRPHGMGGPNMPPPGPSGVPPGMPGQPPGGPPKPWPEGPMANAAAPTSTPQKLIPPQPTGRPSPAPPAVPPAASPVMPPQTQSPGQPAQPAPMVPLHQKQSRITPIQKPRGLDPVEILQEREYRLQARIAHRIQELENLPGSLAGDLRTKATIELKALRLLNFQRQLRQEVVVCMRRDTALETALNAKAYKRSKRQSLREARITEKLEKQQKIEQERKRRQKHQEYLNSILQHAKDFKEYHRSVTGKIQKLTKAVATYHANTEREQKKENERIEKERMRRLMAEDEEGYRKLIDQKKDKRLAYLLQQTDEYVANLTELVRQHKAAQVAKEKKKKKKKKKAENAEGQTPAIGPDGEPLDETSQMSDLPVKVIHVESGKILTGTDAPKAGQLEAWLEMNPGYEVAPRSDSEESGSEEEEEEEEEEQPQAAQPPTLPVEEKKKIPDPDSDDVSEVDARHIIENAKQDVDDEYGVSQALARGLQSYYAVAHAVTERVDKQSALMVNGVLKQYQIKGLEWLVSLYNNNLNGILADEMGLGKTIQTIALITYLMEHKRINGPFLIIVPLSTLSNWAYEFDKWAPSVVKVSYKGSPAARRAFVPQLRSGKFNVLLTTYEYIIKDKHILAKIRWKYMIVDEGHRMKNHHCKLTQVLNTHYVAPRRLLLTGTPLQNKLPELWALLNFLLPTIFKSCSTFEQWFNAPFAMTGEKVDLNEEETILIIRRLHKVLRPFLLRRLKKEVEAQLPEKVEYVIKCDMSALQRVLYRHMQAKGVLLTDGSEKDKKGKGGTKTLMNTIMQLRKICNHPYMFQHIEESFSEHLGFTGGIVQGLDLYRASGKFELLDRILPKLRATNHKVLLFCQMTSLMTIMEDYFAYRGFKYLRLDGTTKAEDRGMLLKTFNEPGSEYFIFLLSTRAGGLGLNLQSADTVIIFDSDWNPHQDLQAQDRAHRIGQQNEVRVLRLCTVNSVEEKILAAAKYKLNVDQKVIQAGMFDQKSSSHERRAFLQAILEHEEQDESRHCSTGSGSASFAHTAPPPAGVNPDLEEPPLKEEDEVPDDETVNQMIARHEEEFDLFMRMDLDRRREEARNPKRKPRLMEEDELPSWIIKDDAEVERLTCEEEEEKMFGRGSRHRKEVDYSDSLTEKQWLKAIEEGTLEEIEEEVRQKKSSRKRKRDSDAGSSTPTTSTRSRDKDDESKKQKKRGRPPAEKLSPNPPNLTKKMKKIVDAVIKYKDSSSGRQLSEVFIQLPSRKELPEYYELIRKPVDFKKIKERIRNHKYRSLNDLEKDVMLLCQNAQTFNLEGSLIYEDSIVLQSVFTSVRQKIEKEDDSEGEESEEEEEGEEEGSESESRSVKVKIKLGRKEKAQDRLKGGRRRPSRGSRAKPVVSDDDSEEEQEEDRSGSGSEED

T1 sequence (P51531 whole entry): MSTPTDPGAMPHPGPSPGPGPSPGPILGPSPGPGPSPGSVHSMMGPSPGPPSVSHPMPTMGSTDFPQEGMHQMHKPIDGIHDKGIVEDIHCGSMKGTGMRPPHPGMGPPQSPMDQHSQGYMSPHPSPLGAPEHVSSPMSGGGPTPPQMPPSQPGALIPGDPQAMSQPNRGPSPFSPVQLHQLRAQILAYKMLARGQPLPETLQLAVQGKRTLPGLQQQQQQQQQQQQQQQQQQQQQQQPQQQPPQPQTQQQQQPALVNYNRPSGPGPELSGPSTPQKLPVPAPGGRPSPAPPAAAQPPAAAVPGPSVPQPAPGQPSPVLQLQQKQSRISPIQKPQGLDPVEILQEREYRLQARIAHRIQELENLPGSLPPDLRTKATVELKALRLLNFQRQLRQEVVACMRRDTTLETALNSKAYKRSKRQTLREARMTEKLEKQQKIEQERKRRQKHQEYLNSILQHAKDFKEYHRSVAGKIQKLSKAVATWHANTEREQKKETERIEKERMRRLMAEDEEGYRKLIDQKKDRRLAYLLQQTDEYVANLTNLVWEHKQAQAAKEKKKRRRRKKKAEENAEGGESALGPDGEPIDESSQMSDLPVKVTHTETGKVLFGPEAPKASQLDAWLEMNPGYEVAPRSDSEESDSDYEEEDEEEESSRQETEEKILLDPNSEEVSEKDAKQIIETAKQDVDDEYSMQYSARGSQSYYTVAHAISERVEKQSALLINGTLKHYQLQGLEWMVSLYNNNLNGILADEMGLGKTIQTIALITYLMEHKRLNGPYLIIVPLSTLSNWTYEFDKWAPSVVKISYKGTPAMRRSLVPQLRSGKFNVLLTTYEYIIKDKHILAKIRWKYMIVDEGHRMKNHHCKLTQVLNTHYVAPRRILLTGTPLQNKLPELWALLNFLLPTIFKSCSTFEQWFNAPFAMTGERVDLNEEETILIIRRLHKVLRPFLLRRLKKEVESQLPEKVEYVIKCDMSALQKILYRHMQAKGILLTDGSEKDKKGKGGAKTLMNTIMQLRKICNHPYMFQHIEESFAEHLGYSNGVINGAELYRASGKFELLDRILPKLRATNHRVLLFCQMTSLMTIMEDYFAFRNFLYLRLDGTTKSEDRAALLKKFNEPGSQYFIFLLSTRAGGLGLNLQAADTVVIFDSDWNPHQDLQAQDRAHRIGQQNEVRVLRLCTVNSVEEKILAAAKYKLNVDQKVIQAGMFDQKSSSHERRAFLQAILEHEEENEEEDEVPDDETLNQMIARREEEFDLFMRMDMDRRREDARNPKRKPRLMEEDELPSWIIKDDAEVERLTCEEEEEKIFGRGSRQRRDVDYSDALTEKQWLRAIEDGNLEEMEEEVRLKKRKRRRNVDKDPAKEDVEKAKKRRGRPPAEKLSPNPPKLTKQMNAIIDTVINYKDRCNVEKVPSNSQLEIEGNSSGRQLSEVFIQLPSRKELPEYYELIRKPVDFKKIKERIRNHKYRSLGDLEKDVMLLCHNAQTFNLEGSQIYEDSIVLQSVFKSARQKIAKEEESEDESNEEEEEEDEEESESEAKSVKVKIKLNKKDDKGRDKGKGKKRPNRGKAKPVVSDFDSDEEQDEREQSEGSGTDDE

Row | SMILES | IC50 (BRM) | IC50 (BRG-1)
1 | CN(C)CCN(C)c1cc(-c2cccc(-c3csc(NC(=O)CNC(=O)c4ccn(S(C)(=O)=O)c4)n3)c2)ccn1 [Compound 21, N-(2-((4-(3-(2-((2-(dimethylamino)ethyl)(methyl)amino)pyridin-4-yl)phenyl)thiazol-2-yl)amino)-2-oxoethyl)-1-(methylsulfonyl)-1H-pyrrole-3-carboxamide] | > 0.01 µM | > 0.01 µM
2 | Cc1cc(-c2cccc(-c3csc(NC(=O)CNC(=O)c4ccn(C(C)(C)C)c4)n3)c2)ncn1 [Compound 22, 1-(tert-butyl)-N-(2-((4-(3-(6-methylpyrimidin-4-yl)phenyl)thiazol-2-yl)amino)-2-oxoethyl)-1H-pyrrole-3-carboxamide] | < 0.01 µM | < 0.01 µM
3 | Cc1nccc(-c2cccc(-c3csc(NC(=O)CNC(=O)c4ccn(C(C)(C)C)c4)n3)c2)n1 [Compound 23, 1-(tert-butyl)-N-(2-((4-(3-(2-methylpyrimidin-4-yl)phenyl)thiazol-2-yl)amino)-2-oxoethyl)-1H-pyrrole-3-carboxamide] | < 0.01 µM | < 0.01 µM
4 | CC(C)(C)n1ccc(C(=O)NCC(=O)Nc2nc(-c3cccc(-c4ccnc(CN)c4)c3)cs2)c1 [Compound 24, N-(2-((4-(3-(2-(aminomethyl)pyridin-4-yl)phenyl)thiazol-2-yl)amino)-2-oxoethyl)-1-(tert-butyl)-1H-pyrrole-3-carboxamide] | > 0.01 µM | > 0.01 µM
5 | COC(C)(C)Cn1ccc(-c2cccc(-c3csc(NC(=O)CNC(=O)c4ccn(C(C)(C)C)c4)n3)c2)n1 [Compound 25, 1-(tert-butyl)-N-(2-((4-(3-(1-(2-methoxy-2-methylpropyl)-1H-pyrazol-3-yl)phenyl)thiazol-2-yl)amino)-2-oxoethyl)-1H-pyrrole-3-carboxamide] | > 0.01 µM | > 0.1 µM
6 | Cn1nc(-c2cccc(-c3csc(NC(=O)CNC(=O)c4ccn(C(C)(C)C)c4)n3)c2)cc1CO [Compound 26, 1-(tert-butyl)-N-(2-((4-(3-(5-(hydroxymethyl)-1-methyl-1H-pyrazol-3-yl)phenyl)thiazol-2-yl)amino)-2-oxoethyl)-1H-pyrrole-3-carboxamide] | > 0.01 µM | > 0.01 µM
7 | COCC(C)(C)n1ccc(C(=O)NCC(=O)Nc2nc(-c3cccc(-c4ccn(C)n4)c3)cs2)c1 [Compound 27, 1-(1-methoxy-2-methylpropan-2-yl)-N-(2-((4-(3-(1-methyl-1H-pyrazol-3-yl)phenyl)thiazol-2-yl)amino)-2-oxoethyl)-1H-pyrrole-3-carboxamide] | > 0.1 µM | > 1 µM
8 | Cn1ccc(-c2cccc(-c3csc(NC(=O)CNC(=O)c4ccn(CC(C)(C)O)c4)n3)c2)n1 [Compound 28, 1-(2-hydroxy-2-methylpropyl)-N-(2-((4-(3-(1-methyl-1H-pyrazol-3-yl)phenyl)thiazol-2-yl)amino)-2-oxoethyl)-1H-pyrrole-3-carboxamide] | > 1 µM | > 1 µM
9 | COC(C)(C)Cn1ccc(C(=O)NCC(=O)Nc2nc(-c3cccc(-c4ccn(C)n4)c3)cs2)c1 [Compound 29, 1-(2-methoxy-2-methylpropyl)-N-(2-((4-(3-(1-methyl-1H-pyrazol-3-yl)phenyl)thiazol-2-yl)amino)-2-oxoethyl)-1H-pyrrole-3-carboxamide] | > 1 µM | > 1 µM

More lines, now with the values ahead:

Row | IC50 (BRM) | IC50 (BRG-1) | SMILES
10 | > 0.01 µM | > 0.01 µM | Cn1ccc(-c2cccc(-c3csc(NC(=O)CNC(=O)c4ccn(C(C)(C)CO)c4)n3)c2)n1 [Compound 30, 1-(1-hydroxy-2-methylpropan-2-yl)-N-(2-((4-(3-(1-methyl-1H-pyrazol-3-yl)phenyl)thiazol-2-yl)amino)-2-oxoethyl)-1H-pyrrole-3-carboxamide]
11 | > 1 µM | > 1 µM | Cn1cncc1C(=O)NCC(=O)Nc1nc(-c2cccc(C#N)c2)cs1 [Compound 31, N-(2-((4-(3-cyanophenyl)thiazol-2-yl)amino)-2-oxoethyl)-1-methyl-1H-imidazole-5-carboxamide]
12 | > 1 µM | > 1 µM | Cn1nccc1C(=O)NCC(=O)Nc1nc(-c2cccc(C#N)c2)cs1 [Compound 32, N-(2-((4-(3-cyanophenyl)thiazol-2-yl)amino)-2-oxoethyl)-1-methyl-1H-pyrazole-5-carboxamide]
13 | > 0.01 µM | > 0.01 µM | CS(=O)(=O)n1ccc(C(=O)NCC(=O)Nc2nc(-c3cccc(C#N)c3)cs2)c1 [Compound 33, N-(2-((4-(3-cyanophenyl)thiazol-2-yl)amino)-2-oxoethyl)-1-(methylsulfonyl)-1H-pyrrole-3-carboxamide]
14 | > 0.01 µM | > 0.1 µM | CC(C)(C#N)n1ccc(C(=O)NCC(=O)Nc2nc(-c3cccc(C#N)c3)cs2)c1 [Compound 34, N-(2-((4-(3-cyanophenyl)thiazol-2-yl)amino)-2-oxoethyl)-1-(2-cyanopropan-2-yl)-1H-pyrrole-3-carboxamide]
15 | > 0.1 µM | > 0.1 µM | CC(C)(C)n1ccc(C(=O)NCC(=O)Nc2nc(-c3cccc(C#N)c3)cs2)c1 [Compound 35, 1-(tert-butyl)-N-(2-((4-(3-cyanophenyl)thiazol-2-yl)amino)-2-oxoethyl)-1H-pyrrole-3-carboxamide]
16 | > 0.1 µM | > 0.1 µM | CC(C)(C)n1ccc(C(=O)NCC(=O)Nc2nc(-c3cccc(C#N)c3)cs2)n1 [Compound 36, 1-(tert-butyl)-N-(2-((4-(3-cyanophenyl)thiazol-2-yl)amino)-2-oxoethyl)-1H-pyrazole-3-carboxamide]
17 | > 1 µM | > 1 µM | CC(C)(C)n1cc(C(=O)NCC(=O)Nc2nc(-c3cccc(C#N)c3)cs2)cn1 [Compound 37, 1-(tert-butyl)-N-(2-((4-(3-cyanophenyl)thiazol-2-yl)amino)-2-oxoethyl)-1H-pyrazole-4-carboxamide]
18 | > 0.1 µM | > 0.1 µM | NCCn1ccc(C(=O)NCC(=O)Nc2nc(-c3cccc(-c4ccncc4)c3)cs2)c1 [Compound 38, 1-(2-aminoethyl)-N-(2-oxo-2-((4-(3-(pyridin-4-yl)phenyl)thiazol-2-yl)amino)ethyl)-1H-pyrrole-3-carboxamide]
19 | > 1 µM | > 1 µM | O=C(CNC(=O)c1ccn(C2CCNCC2)c1)Nc1nc(-c2cccc(-c3ccncc3)c2)cs1 [Compound 39, N-(2-oxo-2-((4-(3-(pyridin-4-yl)phenyl)thiazol-2-yl)amino)ethyl)-1-(piperidin-4-yl)-1H-pyrrole-3-carboxamide]
20 | > 0.01 µM | > 0.01 µM | NCCS(=O)(=O)n1ccc(C(=O)NCC(=O)Nc2nc(-c3cccc(-c4ccncc4)c3)cs2)c1 [Compound 40, 1-((2-aminoethyl)sulfonyl)-N-(2-oxo-2-((4-(3-(pyridin-4-yl)phenyl)thiazol-2-yl)amino)ethyl)-1H-pyrrole-3-carboxamide]
21 | < 0.01 µM | > 0.01 µM | CC(C)(C)n1ccc(C(=O)NCC(=O)Nc2nc(-c3cccc(-c4ccncc4)c3)cs2)c1 [Compound 41, 1-(tert-butyl)-N-(2-oxo-2-((4-(3-(pyridin-4-yl)phenyl)thiazol-2-yl)amino)ethyl)-1H-pyrrole-3-carboxamide]
22 | > 0.01 µM | > 0.1 µM | CC(C)(CN)n1ccc(C(=O)NCC(=O)Nc2nc(-c3cccc(-c4ccncc4)c3)cs2)c1 [Compound 42, 1-(1-amino-2-methylpropan-2-yl)-N-(2-oxo-2-((4-(3-(pyridin-4-yl)phenyl)thiazol-2-yl)amino)ethyl)-1H-pyrrole-3-carboxamide]
